Paper PMC5992111, “Heterocyclization of polarized system: synthesis, antioxidant and anti-inflammatory 4-(pyridin-3-yl)-6-(thiophen-2-yl) pyrimidine-2-thiol derivatives” (Chemistry Central Journal, 2018)
Marks after values point to notes of the source that are not given here.

Key:
ovine COX-1 = biological target: T1, ovine COX-1 (Ovis aries, UniProt P05979); test: In vitro COX-1 inhibition, colorimetric ovine COX-1/COX-2 inhibitor screening assay kit; assay type: biochemical; settings: for IC50: means of three determinations, read at 590 nm, read-out: IC 50 (µM) COX-1; for inhibitory activity against COX-1 (in words): compared with the standard drug celecoxib
T1 construct: purchased
T1 sequence (P05979 25-600): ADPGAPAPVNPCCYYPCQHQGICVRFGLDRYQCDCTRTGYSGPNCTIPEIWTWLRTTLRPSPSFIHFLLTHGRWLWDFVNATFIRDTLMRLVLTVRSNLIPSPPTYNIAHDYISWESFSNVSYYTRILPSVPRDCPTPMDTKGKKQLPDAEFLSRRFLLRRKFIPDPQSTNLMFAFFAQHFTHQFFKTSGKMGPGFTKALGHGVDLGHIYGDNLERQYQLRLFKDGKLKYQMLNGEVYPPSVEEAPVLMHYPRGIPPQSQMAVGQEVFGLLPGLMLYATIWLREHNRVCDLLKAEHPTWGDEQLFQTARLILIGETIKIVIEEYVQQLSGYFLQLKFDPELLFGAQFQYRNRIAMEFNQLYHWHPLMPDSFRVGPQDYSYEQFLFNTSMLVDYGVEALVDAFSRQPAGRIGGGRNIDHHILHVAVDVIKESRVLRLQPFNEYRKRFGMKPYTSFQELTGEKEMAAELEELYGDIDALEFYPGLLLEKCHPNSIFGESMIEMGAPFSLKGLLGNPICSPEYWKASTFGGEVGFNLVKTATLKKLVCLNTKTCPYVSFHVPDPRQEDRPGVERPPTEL

ovine COX-2 = biological target: T2, ovine COX-2 (Ovis aries, UniProt P79208); test: In vitro COX-2 inhibition, colorimetric ovine COX-1/COX-2 inhibitor screening assay kit; assay type: biochemical; settings: for COX-1/COX-2 selectivity index: IC50 (COX-1)/IC50 (COX-2); for IC50: means of three determinations, read at 590 nm, read-out: IC 50 (µM) COX-2; for inhibitory activity against COX-2 (in words): compared with the standard drug celecoxib
T2 construct: purchased
T2 sequence (P79208 17-603): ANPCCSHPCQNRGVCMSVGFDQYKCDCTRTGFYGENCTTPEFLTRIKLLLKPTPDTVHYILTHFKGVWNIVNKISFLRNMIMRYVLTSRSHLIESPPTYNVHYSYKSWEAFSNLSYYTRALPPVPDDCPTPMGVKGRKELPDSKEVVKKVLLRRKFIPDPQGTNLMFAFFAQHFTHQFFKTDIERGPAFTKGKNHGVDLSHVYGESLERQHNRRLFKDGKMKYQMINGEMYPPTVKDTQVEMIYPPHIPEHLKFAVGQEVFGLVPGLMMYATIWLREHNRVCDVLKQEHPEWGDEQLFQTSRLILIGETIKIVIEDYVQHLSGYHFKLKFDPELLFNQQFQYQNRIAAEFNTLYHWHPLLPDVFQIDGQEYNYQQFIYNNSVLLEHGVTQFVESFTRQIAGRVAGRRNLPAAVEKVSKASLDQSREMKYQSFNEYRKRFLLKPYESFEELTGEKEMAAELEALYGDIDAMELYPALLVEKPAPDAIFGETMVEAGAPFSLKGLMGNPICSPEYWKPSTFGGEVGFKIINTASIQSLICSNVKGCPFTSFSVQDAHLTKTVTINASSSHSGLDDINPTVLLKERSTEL

[1] = tested on: carrageenan induced rat paw edema; test: Carrageenan induced rat paw edema; assay type: in vivo; settings: mean ± SD
Experimental: Carrageenan induced rat paw edema in rats: Fifty rats were divided into ten groups (i.e., each group, five rats). The first group (control), received carboxymethyl cellulose. The second group was given diclofenac sodium as a standard anti-inflammatory drug. Groups (3–10) were orally given the newly synthesized compounds (3–6) in two dosages (5 and 10 mg/kg). Results were expressed as rat paw edema percent. One hour later after administration of tested doses, carrageenan was injected sub planter in the left hind footpad of each rat as 0.05 ml of 1% solution in sterile distilled water. Plethysmometer was used to measure paw edema volume from 0 to 4 h after carrageenan injection. Paw edema volume was compared with vehicle control group and reduction percent was calculated as the following %reduction in edema=1-Vt Vc×100 Where Vt and Vc are the edema volume in the group treated with drug and control, respectively. Results were expressed as mean ± standard deviation (SD). Differences between means were tested for significance using a one-way analysis of variance (ANOVA) followed by Duncan’s test (Table 2).

[2] = DPPH free radical scavenging assay; settings: for scavenging activity towards the DPPH radicals (in words): compared with ascorbic acid
Experimental: • DPPH free radical scavenging assay was determined (4). Ascorbic acid was used as reference standard antioxidant.

lipid peroxidation = test: Lipid peroxidation assay
Experimental: • Lipid peroxidation assay (5 and 6) was calculated as IC50 and recorded in Table 3.

[3] = 5 mg/kg.b.wt oral, 0 h after carrageenan
[4] = 5 mg/kg.b.wt oral, 1 h after carrageenan
[5] = 5 mg/kg.b.wt oral, 2 h after carrageenan
[6] = 5 mg/kg.b.wt oral, 3 h after carrageenan
[7] = 5 mg/kg.b.wt oral, 4 h after carrageenan
[8] = 10 mg/kg.b.wt oral, 0 h after carrageenan
[9] = 10 mg/kg.b.wt oral, 1 h after carrageenan
[10] = 10 mg/kg.b.wt oral, 2 h after carrageenan
[11] = 10 mg/kg.b.wt oral, 3 h after carrageenan
[12] = 10 mg/kg.b.wt oral, 4 h after carrageenan

SMILES	IC50 (ovine COX-1) [µM]	COX-1/COX-2 selectivity index (ovine COX-2)	IC50 (ovine COX-2) [µM]	IC50 (μg/ml) for DPPH Scavenging [2] [µg/mL]	IC50 (μg/ml) for anti-lipid peroxidation (lipid peroxidation) [µg/mL]	melting point [°C]	Inhibition percent of rat paw edema [1, 3]	Inhibition percent of rat paw edema [1, 4]	Inhibition percent of rat paw edema [1, 5]	Inhibition percent of rat paw edema [1, 6]	Inhibition percent of rat paw edema [1, 7]	Inhibition percent of rat paw edema [1, 8]	Inhibition percent of rat paw edema [1, 9]	Inhibition percent of rat paw edema [1, 10]	Inhibition percent of rat paw edema [1, 11]	Inhibition percent of rat paw edema [1, 12]	also measured
O=C(/C=C/c1cccs1)c1cccnc1 [Compound 3, (E)-1-(pyridin-3-yl)-3-(thiophen-2-yl) prop-2-en-1-one]	3.7	9.49	0.39	10.72 ± 0.54	16.81 ± 2.71	256 to 258	0.48 ± 0.027^ab %	21.72 ± 0.79^b %	22.79 ± 1.07^d %	24.79 ± 0.49^c %	28.41 ± 1.30^c %	0.47 ± 0.04^ab %	31.98 ± 9.35^a %	29.93 ± 1.43^b %	34.16 ± 0.61^b %	41.15 ± 0.750^a %	scavenging activity towards the DPPH radicals (in words) [2]: higher scavenging activity towards the DPPH radicals than that of ascorbic acid
O=C(O)Cc1ccccc1Nc1c(Cl)cccc1Cl [Diclofenac sodium, diclofenac sodium, reference compound]	–	–	–	–	–	–	–	–	–	–	–	–	–	–	–	–	Inhibition percent of rat paw edema ([1]; standard drug, dose not given, 0 h after carrageenan): 0.49 ± 0.032^a %; Inhibition percent of rat paw edema ([1]; standard drug, dose not given, 1 h after carrageenan): 30.22 ± 1.27^a %; Inhibition percent of rat paw edema ([1]; standard drug, dose not given, 2 h after carrageenan): 33.85 ± 1.19^a %; Inhibition percent of rat paw edema ([1]; standard drug, dose not given, 3 h after carrageenan): 36.21 ± 0.93^a %; Inhibition percent of rat paw edema ([1]; standard drug, dose not given, 4 h after carrageenan): 41.10 ± 3.98^a %
O=C1O[C@H]([C@@H](O)CO)C(O)=C1O [Ascorbic acid, reference compound]	–	–	–	13.71 ± 0.75	25.72 ± 1.23	–	–	–	–	–	–	–	–	–	–	–	–

Second part, led by results:

IC50 (ovine COX-1) [µM]	COX-1/COX-2 selectivity index (ovine COX-2)	IC50 (ovine COX-2) [µM]	IC50 (μg/ml) for DPPH Scavenging [2] [µg/mL]	IC50 (μg/ml) for anti-lipid peroxidation (lipid peroxidation) [µg/mL]	melting point [°C]	SMILES	Inhibition percent of rat paw edema [1, 3]	Inhibition percent of rat paw edema [1, 4]	Inhibition percent of rat paw edema [1, 5]	Inhibition percent of rat paw edema [1, 6]	Inhibition percent of rat paw edema [1, 7]	Inhibition percent of rat paw edema [1, 8]	Inhibition percent of rat paw edema [1, 9]	Inhibition percent of rat paw edema [1, 10]	Inhibition percent of rat paw edema [1, 11]	Inhibition percent of rat paw edema [1, 12]	also measured
4.02	9.13	0.44	12.64 ± 0.41	22.53 ± 3.25	220 to 225	S=c1nc(-c2cccnc2)cc(-c2cccs2)[nH]1 [Compound 4, 4-(pyridin-3-yl)-6-(thiophen-2-yl) pyrimidine-2(1H)-thione]	0.46 ± 0.03^b %	18.91 ± 1.19^bc %	20.07 ± 1.43^e %	21.96 ± 1.25^d %	27.38 ± 1.68^c %	0.49 ± 0.01^ab %	21.43 ± 0.96^b %	26.27 ± 49^e %	33.13 ± 2.64^b %	37.15 ± 0.69^b %	scavenging activity towards the DPPH radicals (in words) [2]: higher scavenging activity towards the DPPH radicals than that of ascorbic acid
4.95	5.89	0.84	15.26 ± 0.44	22.67 ± 3.51	210 to 212	N#Cc1c(-c2cccs2)cc(-c2cccnc2)oc1=O [Compound 6, 2-oxo-6-(pyridin-3-yl)-4-(thiophen-2-yl)-2H-pyran-3-carbonitrile]	0.50 ± 0.02^a %	9.61 ± 1.12^e %	12.28 ± 1.38^h %	17.19 ± 1.26^e %	18.51 ± 2.26^e %	0.49 ± 0.01^a %	13.75 ± 1.15^de %	17.52 ± 1.13^f %	20.43 ± 0.65^d %	22.39 ± 1.16^d %	inhibitory activity against COX-1 (in words) (ovine COX-1): nearly like that of the standard drug; inhibitory activity against COX-2 (in words) (ovine COX-2): nearly like that of the standard drug
–	–	–	–	–	190 to 192	Cc1cc(=O)oc2c1c(C)nn2-c1nc(-c2cccnc2)cc(-c2cccs2)n1 [Compound 8, 3,4-dimethyl-1-(4-(pyridin-3-yl)-6-(thiophen-2-yl)pyrimidin-2-yl)pyrano[2,3-c]pyrazol-6(1H)-one]	–	–	–	–	–	–	–	–	–	–	–
–	–	–	–	–	225 to 227	CC1=NN(c2nc(-c3cccnc3)cc(-c3cccs3)n2)C(=O)C1 [Compound 9, 3-methyl-1-(4-(pyridin-3-yl)-6-(thiophen-2-yl)pyrimidin-2-yl)-1H-pyrazol-5(4H)-one]	–	–	–	–	–	–	–	–	–	–	–
4.6	5.29	0.87	14.61 ± 0.72	23.62 ± 2.31	180 to 182	NNc1nc(-c2cccnc2)cc(-c2cccs2)n1 [Compound 5, 1-(4-(pyridin-3-yl)-6-(thiophen-2-yl)pyrimidin-2-yl)hydrazine]	0.49 ± 0.01^a %	11.62 ± 1.24^de %	14.61 ± 1.81^g %	18.41 ± 1^e %	19.48 ± 0.89^e %	0.48 ± 0.01^ab %	15.41 ± 0.83^cd %	18.83 ± 0.75^ef %	24.19 ± 1.59^c %	28.59 ± 2.26^c %	inhibitory activity against COX-1 (in words) (ovine COX-1): nearly like that of the standard drug; inhibitory activity against COX-2 (in words) (ovine COX-2): nearly like that of the standard drug
